Measurements published in ChEMBL document CHEMBL1201862, “PubChem BioAssay data set” (2004).
Active and inactive are the calls of the source.

How the values were obtained:
[1] = molecular target: E3 ubiquitin-protein ligase Mdm2 (Homo sapiens, UniProt Q00987); assay: MDM2-luc reporter signal enhancers, multi-concentration potency testing, MDM2 ubiquitin-protein ligase inhibitor program, whole-cell format, luminescence detection, 384-well microplate (AID 1394); assay type: functional;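 also: MDM2 E3 inhibitors raise luminescence so EC50 is for signal enhancement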
[2] = tested on: Streptococcus sp. 'group A'; assay: Streptococcus pyogenes SK(-)GAS viability under kanamycin – luminescence, BacTiterGlo, confirmation, counter-screen for streptokinase expression inhibitor project, dose response (AID 1900); assay type: functional, organism-based
cells [3] = assay type: functional, cell-based
Streptokinase A = molecular target: T1, Streptokinase A (Streptococcus pyogenes serotype M1, UniProt P10520); assay: viability-normalized secreted streptokinase activity reduction – plasminogen activation absorbance, OD405, dose response (AID 1914); assay type: functional, Streptococcus pyogenes M1 GAS;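 also: secreted streptokinase activity via plasminogen activation per viability signal from cell pellet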
T1 sequence (P10520 whole entry): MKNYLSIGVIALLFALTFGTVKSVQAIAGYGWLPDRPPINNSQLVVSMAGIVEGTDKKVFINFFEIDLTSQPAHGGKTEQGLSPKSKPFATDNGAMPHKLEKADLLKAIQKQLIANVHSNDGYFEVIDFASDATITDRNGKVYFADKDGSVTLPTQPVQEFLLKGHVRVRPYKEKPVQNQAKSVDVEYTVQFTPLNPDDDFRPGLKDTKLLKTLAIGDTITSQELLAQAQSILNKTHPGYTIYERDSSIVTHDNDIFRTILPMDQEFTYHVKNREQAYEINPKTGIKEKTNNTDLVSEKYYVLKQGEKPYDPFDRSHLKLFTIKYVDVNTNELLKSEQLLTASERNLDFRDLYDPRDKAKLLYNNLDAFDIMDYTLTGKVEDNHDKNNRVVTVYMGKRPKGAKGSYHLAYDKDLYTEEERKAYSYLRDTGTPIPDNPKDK

[4] = Trypanosoma cruzi growth suppression in host cells – NIH3T3 host cells, beta-gal luminescence, confirmation (AID 2044); assay type: functional, cell-based;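 also: intracellular parasites grown in NIH/3T3 mouse fibroblasts as host cells; luminescent beta-galactosidase reporter signal from transgenic T. cruzi replicating inside host cells; inhibitors lower the luminescence signal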
cells [5] = assay type: functional, cell-based; remark: listed apart in the source
[6] = molecular target: T2, Kappa-type opioid receptor (Homo sapiens, UniProt P41145); assay type: functional
[7] = NIH3T3 cell viability loss – ATP luminescence, mouse fibroblasts, counter-screen, dose response (AID 2010); assay type: functional, cell-based;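 also: cells exposed to compound for about 90 hours before reading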
Beta-galactosidase = Beta-galactosidase (Escherichia coli, UniProt Q8VNN2); assay type: functional
[8] = molecular target: T2, Kappa-type opioid receptor; assay type: functional; remark: listed apart in the source
Streptococcus = assay: GAS UMAA2166 growth inhibition – luminescence, BacTiterGlo, counter-screen for streptokinase expression inhibitor project, dose response (AID 1915); assay type: functional, organism-based;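 also: potency for reduction of bacterial viability or growth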
cells [9] = assay: cells
Trypsin = Trypsin (Sus scrofa, UniProt P00761); assay: trypsin protease activity blockade – biochemical, quenched peptide fluorescence, cherry-pick, selectivity assay for Rce1 protease inhibitor project, dose response (AID 488789)
[10] = molecular target: Acylamino-acid-releasing enzyme (Homo sapiens, UniProt P13798); assay: endogenous PME-1 and serine hydrolase inhibition – cell lysate, mouse brain cytosol, FP-rhodamine, gel ABPP, selectivity assay for PME-1 inhibitor project, dose response, panel member APEH Assay Panel member description: Inhibition of N-acylaminoacyl-peptide hydrolase (APEH) (anti-target) (AID 2366)
[11] = NIH-3T3 fibroblast cytotoxicity, dose response, cytotoxicity control, cell-based, fluorescence, Alamar Blue, secondary assay (AID 2327); assay type: functional;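 also: NIH-3T3 mouse fibroblasts cultured with fluconazole at 8 µg/mL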
[12] = fluconazole-exposed Candida albicans growth modulators – fluorescence, retest, confirmation (AID 2467); assay type: functional, cell-based
Caspase-3 = molecular target: T3, Caspase-3 (Homo sapiens, UniProt P42574); assay: activation of caspase-3 zymogen – biochemical, absorbance, dose response (AID 489014)
T3 sequence (P42574 whole entry): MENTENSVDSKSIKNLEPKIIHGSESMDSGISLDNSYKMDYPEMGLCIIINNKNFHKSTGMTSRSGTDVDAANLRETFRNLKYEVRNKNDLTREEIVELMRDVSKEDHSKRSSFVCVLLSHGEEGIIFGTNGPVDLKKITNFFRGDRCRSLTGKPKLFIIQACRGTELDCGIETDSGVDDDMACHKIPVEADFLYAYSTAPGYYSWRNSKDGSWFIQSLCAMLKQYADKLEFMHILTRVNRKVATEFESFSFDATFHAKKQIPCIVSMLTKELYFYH

[13] = THP-1 cell cytotoxicity, dose response, cytotoxicity control for non-replicating M. tuberculosis project (AID 489025); assay type: functional
Caspase-7 = molecular target: T4, Caspase-7 (Homo sapiens, UniProt P55210); assay: activation of caspase-7 zymogen – biochemical, absorbance, counter-screen for procaspase-3 activator project, dose response (AID 489013)
T4 sequence (P55210 whole entry): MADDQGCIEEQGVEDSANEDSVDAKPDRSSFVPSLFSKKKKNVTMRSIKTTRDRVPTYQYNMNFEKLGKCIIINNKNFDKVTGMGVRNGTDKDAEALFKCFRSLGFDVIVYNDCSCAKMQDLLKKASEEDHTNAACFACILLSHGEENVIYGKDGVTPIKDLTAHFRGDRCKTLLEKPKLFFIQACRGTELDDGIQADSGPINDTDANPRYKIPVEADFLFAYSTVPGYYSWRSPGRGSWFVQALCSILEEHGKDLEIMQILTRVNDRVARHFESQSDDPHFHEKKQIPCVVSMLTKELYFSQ

[14] = Vero E6 cell cytotoxicity, dose response, cytotoxicity control for non-replicating M. tuberculosis project, secondary assay (AID 492998); assay type: functional, VeroE6; conditions: Vero C1008
cells [15] = assay type: functional

T2 sequence (P41145 whole entry): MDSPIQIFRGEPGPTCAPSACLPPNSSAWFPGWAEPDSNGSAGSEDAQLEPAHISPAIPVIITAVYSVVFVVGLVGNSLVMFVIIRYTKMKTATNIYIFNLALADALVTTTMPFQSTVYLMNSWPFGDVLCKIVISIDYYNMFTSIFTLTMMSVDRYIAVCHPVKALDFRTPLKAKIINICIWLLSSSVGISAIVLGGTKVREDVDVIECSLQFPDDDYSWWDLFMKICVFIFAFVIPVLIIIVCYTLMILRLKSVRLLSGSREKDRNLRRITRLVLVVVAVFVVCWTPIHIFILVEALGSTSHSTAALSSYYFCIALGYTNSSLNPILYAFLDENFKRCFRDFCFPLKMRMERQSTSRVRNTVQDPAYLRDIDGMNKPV
Chain of Acylamino-acid-releasing enzyme (P13798 whole entry): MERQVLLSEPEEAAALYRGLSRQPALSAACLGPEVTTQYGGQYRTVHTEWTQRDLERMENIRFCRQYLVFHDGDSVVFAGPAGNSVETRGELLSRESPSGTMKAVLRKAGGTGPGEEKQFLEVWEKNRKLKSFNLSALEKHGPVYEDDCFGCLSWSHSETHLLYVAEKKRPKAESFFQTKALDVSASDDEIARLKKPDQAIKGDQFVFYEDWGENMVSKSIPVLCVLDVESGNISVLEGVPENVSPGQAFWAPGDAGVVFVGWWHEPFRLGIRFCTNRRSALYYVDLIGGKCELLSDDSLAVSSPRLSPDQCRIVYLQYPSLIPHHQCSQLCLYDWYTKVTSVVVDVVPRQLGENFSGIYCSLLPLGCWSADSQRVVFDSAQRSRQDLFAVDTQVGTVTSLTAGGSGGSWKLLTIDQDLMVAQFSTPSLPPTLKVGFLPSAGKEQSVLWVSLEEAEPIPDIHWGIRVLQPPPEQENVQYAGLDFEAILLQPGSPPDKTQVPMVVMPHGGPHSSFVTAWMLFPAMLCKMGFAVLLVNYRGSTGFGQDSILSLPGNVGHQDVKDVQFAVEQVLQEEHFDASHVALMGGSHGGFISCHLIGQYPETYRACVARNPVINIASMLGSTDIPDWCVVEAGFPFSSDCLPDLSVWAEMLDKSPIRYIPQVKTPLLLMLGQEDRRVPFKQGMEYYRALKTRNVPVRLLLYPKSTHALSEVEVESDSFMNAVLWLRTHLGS
Chain of Trypsin (P00761 whole entry): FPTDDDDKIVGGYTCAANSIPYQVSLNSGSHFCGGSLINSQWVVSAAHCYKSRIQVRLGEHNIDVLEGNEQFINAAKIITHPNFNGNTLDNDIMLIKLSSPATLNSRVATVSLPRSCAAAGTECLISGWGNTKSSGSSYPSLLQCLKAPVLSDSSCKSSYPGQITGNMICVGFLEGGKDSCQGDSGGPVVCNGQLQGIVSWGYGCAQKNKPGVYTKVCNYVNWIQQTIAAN
Chain of Beta-galactosidase (Q8VNN2 whole entry): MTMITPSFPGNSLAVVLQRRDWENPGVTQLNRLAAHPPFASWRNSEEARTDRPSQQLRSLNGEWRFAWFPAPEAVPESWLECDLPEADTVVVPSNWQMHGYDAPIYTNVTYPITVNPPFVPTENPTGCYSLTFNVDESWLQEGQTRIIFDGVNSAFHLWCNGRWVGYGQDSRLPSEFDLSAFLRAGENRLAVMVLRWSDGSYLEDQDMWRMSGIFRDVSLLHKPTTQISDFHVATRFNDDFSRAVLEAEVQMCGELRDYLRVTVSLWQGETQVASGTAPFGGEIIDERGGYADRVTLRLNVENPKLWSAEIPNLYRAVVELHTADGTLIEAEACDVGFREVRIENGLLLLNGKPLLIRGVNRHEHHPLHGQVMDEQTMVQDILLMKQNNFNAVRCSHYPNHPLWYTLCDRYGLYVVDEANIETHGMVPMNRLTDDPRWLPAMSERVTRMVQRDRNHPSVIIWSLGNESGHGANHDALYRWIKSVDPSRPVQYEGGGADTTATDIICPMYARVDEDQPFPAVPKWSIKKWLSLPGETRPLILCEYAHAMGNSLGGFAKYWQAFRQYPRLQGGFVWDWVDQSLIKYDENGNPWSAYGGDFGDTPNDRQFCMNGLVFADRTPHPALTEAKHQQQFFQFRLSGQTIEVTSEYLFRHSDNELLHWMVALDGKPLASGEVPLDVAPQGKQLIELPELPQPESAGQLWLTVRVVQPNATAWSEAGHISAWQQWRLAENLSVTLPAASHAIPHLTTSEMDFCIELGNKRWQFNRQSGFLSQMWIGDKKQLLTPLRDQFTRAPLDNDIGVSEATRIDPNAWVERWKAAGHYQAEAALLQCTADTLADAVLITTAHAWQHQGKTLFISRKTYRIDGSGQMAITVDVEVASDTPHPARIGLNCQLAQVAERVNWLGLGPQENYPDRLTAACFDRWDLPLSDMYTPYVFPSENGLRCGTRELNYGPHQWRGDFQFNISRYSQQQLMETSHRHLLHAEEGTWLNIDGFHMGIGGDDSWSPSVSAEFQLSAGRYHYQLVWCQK
Chain of E3 ubiquitin-protein ligase Mdm2 (Q00987 whole entry): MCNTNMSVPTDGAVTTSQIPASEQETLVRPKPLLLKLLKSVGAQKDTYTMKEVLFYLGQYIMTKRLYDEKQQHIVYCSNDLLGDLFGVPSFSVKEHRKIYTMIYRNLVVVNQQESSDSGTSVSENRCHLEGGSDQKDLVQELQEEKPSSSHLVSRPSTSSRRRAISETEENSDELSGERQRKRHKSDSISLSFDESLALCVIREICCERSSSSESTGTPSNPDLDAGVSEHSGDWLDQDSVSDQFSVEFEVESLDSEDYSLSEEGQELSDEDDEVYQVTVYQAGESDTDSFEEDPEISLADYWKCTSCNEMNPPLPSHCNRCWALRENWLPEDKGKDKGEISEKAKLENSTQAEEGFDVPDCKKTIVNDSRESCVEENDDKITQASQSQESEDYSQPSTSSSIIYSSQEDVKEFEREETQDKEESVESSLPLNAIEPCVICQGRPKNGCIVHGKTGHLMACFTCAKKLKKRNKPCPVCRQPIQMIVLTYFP

c1ccc(CSC2=NNC(c3ccccn3)S2)cc1 (centres undefined)
EC50 [1]: 12.4 µM (not active) | EC50 [2]: 0.799 µM (active) | EC50 (cells [3]): 66.9 µM (active) | EC50 (Streptokinase A): > 150 µM (not active) | EC50 [4]: < 0.1 µM (active) | EC50 (cells [5]): > 350 µM (not active) | IC50 [6]: > 31.5 µM (inactive) | EC50 [7]: > 60 µM (not active) | EC50 (Beta-galactosidase): > 31.5 µM (inactive) | IC50 [8]: > 32 µM | EC50 (Streptococcus): > 150 µM (not active) | EC50 (cells [9]): 1.73 µM (active)

COc1ccc(Cl)cc1Nc1nc(C)nc2c1oc1ccccc12
AC50 (Trypsin): 14.4 µM (active)

CS(=O)(=O)/C(C#N)=C/c1cccn1S(=O)(=O)c1ccc([N+](=O)[O-])cc1
IC50 [10]: > 50 µM (inactive)

CC(=O)Oc1c(-c2ccc(Br)o2)oc2ccccc2c1=O
EC50 [11]: > 150 µM (inactive) | EC50 [2]: 2.26 µM (active) | EC50 [12]: 1.36 µM (active) | EC50 (Streptococcus): 9.2 µM (active) | EC50 (Caspase-3): 33.4 µM (inactive) | CC50 [13]: > 40 µM (active) | EC50 (Caspase-7): > 85.3 µM (inactive) | CC50 [14]: 16.3 µM (active) | IC50 (cells [15]): 4.63 µM (active)

N#C/C(=C\c1cccn1S(=O)(=O)c1ccccc1)S(=O)(=O)c1ccc(F)cc1
IC50 [10]: > 50 µM (inactive)
